The values below come from ChEMBL document CHEMBL6071155, “Discovery of selective Orai channel blockers bearing an indazole or a pyrazole scaffold” (Eur J Med Chem, 2024).

Activity calls are given as the source filed them. No cut-off for these calls is given here.

In one data set the test system is Jurkat T. In words: Inhibition of NFAT (unknown origin) activation transfected in human Jurkat T cells expressing firefly luciferase gene at 10 uM preincubated with compound for 30 mins followed by PMA/ionomysin addition and measured after 18 hrs by luminometer relative to control. It is filed as cell-based. As to conditions: time 18.5 hrs.
Data set [1] in a line: Inhibition of Store-operated calcium entry (SOCE) in phytohemagglutinin-stimulated human Jurkat T cells at 30 uM in presence of Ca2+ by fura-2 dye based calcium imaging analysis relative to control. It counts as functional.
Data set [2] relates to Calcium release-activated calcium channel protein 1 (Homo sapiens), Q96D31 [G98S]. Put plainly: Reversible inhibition of myc-tagged human Orai-1 G98S mutant expressed in HEK293 cells assessed as reduction in inward current at 10 uM measured upto 6 mins by patch clamp electrophysiology. It is filed as cell-based. On the technique in general: In patch-clamp work, channel activity is measured electrically.
Chain of Calcium release-activated calcium channel protein 1 (Homo sapiens), Q96D31 [G98S] (Q96D31 whole entry G98S): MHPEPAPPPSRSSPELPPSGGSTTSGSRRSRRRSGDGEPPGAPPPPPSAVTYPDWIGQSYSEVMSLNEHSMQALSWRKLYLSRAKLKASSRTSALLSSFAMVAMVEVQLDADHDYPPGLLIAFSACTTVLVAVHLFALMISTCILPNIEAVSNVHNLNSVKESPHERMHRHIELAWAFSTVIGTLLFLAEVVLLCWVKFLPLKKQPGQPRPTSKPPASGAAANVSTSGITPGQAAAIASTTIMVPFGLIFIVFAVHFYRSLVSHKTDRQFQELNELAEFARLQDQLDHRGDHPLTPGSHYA

The target of data set [3] is Calcium release-activated calcium channel protein 1 (Homo sapiens, UniProt Q96D31, G98S). In words: (§1) Inhibition of myc-tagged human orai-1 G98S mutant expressed in HEK293 cells assessed as decrease in inward current by patch clamp electrophysiology technique. It counts as cell-based.
Chain of Calcium release-activated calcium channel protein 1 (Q96D31 whole entry G98S): as above
The test system of data set [4] is Calcium release-activated calcium channel protein 1 (Homo sapiens), Q96D31 [G98S]. Described as §1. It is filed as cell-based. The following applies: dose 1-30 µM.
Data set [5] concerns Jurkat. In words: Cytotoxicity against human Jurkat T cells assessed as decrease in cell viability at 30 uM incubated for 48 hrs by trypan blue exclusion method. It counts as toxicity, cell-based.
Data set [6] addresses Transient receptor potential cation channel subfamily M member 4 (Homo sapiens) (UniProt Q8TD43). In words: Activation of GFP-tagged human TRPM4 transfected in HEK293 cells at 30 uM by patch clamp electrophysiology. It is filed as cell-based.
Data set [7] relates to Jurkat. Put plainly: (§2) Inhibition of Store-operated calcium entry (SOCE) in phytohemagglutinin-stimulated human Jurkat T cells in presence of Ca2+ by fura-2 dye based calcium imaging analysis. It counts as functional, cell-based.
Data set [8] is described as follows: as §2. It counts as functional, cell-based.
Data set [9] relates to Calcium release-activated calcium channel protein 1 (Homo sapiens), Q96D31 [G98S]. Put plainly: Inhibition of myc-tagged human orai-1 G98S mutant expressed in HEK293 cells assessed as decrease in inward current at 30 uM by patch clamp electrophysiology technique relative to control. It counts as cell-based.
Data set [10] concerns the target Transient receptor potential cation channel subfamily M member 7 (Homo sapiens) (UniProt Q96QT4). In words: Activation of TRPM7 in human Jurkat T cells at 30 uM by patch clamp electrophysiology. It is filed as cell-based.
The test system of data set [11] is Jurkat. In words: Cytotoxicity against human Jurkat T cells assessed as cell killing at 30 uM incubated for 48 hrs by trypan blue exclusion method relative to control. It counts as toxicity, cell-based.
For data set [12], the target named is Transient receptor potential cation channel subfamily M member 4 (Homo sapiens) (UniProt Q8TD43). In words: Activation of GFP-tagged human TRPM4 transfected in HEK293 cells at 10 uM by patch clamp electrophysiology. It is filed as cell-based. As to conditions: filed as opener.
Chain of Transient receptor potential cation channel subfamily M member 4 (Homo sapiens) (Q8TD43 whole entry): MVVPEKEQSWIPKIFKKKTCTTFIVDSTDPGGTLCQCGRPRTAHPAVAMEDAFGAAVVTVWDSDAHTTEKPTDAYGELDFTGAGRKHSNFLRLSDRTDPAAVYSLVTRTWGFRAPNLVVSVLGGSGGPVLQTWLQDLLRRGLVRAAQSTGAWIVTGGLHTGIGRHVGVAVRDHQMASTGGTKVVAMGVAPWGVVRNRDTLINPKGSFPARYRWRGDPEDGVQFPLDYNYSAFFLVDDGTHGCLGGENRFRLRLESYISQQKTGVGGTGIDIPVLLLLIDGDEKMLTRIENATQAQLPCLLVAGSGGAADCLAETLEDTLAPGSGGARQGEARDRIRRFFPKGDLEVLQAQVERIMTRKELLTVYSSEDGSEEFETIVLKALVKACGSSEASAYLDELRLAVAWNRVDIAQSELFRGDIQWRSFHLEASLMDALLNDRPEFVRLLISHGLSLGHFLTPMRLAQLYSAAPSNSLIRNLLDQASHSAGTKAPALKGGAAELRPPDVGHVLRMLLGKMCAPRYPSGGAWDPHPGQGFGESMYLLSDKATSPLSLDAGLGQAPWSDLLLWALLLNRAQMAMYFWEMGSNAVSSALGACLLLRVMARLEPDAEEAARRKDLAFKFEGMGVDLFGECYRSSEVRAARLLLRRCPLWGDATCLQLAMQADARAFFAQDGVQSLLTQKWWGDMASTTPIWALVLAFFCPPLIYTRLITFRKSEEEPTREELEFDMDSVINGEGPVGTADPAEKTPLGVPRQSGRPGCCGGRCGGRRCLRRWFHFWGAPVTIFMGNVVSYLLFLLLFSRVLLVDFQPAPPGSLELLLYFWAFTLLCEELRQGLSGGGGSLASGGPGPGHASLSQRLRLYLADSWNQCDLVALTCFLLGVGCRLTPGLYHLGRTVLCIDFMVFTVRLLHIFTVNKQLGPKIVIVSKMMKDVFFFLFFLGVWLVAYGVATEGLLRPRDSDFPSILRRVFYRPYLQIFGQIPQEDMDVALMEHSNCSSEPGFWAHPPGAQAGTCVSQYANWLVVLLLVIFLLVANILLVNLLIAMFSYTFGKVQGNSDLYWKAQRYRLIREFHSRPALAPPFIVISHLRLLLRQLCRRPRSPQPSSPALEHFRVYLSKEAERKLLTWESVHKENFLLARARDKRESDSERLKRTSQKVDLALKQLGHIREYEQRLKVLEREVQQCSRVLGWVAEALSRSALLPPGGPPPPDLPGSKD

Chain of Transient receptor potential cation channel subfamily M member 7 (Homo sapiens) (Q96QT4 whole entry): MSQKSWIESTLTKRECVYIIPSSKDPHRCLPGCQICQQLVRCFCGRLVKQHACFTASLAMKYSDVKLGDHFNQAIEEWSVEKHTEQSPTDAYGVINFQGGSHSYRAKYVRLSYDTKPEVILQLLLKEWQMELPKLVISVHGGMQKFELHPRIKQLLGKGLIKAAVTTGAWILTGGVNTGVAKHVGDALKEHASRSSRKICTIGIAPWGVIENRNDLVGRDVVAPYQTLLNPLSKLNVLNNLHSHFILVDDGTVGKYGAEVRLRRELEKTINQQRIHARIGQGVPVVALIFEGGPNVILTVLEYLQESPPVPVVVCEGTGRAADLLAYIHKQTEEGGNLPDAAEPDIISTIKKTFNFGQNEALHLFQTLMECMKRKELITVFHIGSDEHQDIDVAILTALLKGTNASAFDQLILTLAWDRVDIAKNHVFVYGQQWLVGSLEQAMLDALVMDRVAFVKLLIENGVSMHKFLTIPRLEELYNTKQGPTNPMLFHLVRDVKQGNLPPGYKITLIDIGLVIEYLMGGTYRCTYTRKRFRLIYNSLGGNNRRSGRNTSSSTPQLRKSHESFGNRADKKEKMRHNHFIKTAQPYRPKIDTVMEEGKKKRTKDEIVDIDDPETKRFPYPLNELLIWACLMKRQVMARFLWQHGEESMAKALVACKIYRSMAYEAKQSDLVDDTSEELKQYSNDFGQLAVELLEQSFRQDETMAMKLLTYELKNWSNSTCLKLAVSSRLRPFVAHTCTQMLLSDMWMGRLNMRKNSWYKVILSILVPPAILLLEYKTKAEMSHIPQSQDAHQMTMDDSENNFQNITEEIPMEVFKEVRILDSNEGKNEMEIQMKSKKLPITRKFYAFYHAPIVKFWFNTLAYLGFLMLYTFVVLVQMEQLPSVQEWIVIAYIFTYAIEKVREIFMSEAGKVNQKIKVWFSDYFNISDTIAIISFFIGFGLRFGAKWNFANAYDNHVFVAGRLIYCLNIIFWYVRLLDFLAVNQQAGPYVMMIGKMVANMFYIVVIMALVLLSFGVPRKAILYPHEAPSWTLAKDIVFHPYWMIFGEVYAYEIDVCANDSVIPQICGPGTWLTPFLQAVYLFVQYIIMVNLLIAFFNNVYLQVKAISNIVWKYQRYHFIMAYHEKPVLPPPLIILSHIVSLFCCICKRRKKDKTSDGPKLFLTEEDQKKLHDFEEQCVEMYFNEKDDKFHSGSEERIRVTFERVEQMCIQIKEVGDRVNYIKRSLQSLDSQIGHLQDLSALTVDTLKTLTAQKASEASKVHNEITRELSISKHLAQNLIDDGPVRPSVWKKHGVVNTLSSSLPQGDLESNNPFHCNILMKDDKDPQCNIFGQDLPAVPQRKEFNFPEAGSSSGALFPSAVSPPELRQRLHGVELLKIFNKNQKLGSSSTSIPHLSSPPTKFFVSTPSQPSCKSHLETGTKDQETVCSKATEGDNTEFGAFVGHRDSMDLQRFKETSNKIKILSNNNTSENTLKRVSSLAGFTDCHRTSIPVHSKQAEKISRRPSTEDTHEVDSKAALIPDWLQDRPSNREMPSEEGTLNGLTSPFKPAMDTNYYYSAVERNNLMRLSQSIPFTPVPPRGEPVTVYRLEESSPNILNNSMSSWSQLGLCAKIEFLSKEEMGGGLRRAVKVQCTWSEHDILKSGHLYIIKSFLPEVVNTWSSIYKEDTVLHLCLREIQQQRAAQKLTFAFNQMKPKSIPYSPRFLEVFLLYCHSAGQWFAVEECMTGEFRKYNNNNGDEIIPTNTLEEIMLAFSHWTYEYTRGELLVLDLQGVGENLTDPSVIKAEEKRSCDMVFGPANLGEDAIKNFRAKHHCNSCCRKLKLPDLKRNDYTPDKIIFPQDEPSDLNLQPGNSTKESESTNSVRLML

Consider `O=C(Nc1ccncc1F)c1nn(CC2CCC2)c2c1CCCC2`, for which the inhibition with Jurkat T came to 92.8%. As for `O=C(Nc1ccncc1F)c1nn(CC2CC2)c2ccccc12`, the inhibition at 30 µM in data set [1] was 100%. In addition, the inhibition with Jurkat T was 97.9%; in [4] it was “Dose-Dependent Effect”; in the data set with Jurkat [7], “Dose-Dependent Effect”; in [9], 100%. Also, the inhibition entry in data set [2] was “Active”. Also, the IC50 in [3] came to 4.9 µM; in data set [8], 10 µM. In the data set with Jurkat [5], the Activity entry was “Non-Toxic”. The result in data set [6] and in [10] was inactive. In the case of `O=C(Nc1ccncc1F)c1nn(CC2CC2)c2cc(F)ccc12`, the inhibition in the data set with Jurkat T came to 96.1%. Take `O=C(Nc1ccncc1F)c1nn(CC2CC2)c2c(F)cccc12`: in the data set on Jurkat T, the inhibition turned out to be 48.5%.

In the case of `Cc1cnccc1NC(=O)c1ccn(CC2CC2)n1`, in the data set on Jurkat T, the inhibition amounted to 61.3%. For the compound `O=C(Nc1ccncc1F)c1nn(CC2CC2)c2ncccc12`, the inhibition in the data set with Jurkat T was 64.6%. In addition, the inhibition entry in [2] was “Active”. In the case of `Cc1cnccc1NC(=O)c1nn(CC2CC2)c2c1CCCC2`, the inhibition in the data set with Jurkat T was 88.7%.

`Cc1nnsc1C(=O)Nc1ccc(-n2nc(C(F)(F)F)cc2C(F)(F)F)cc1`: the Activity with Jurkat [11] is recorded as ~ 80%. In addition, the result in data set [12] was Active. Consider `Cc1cnccc1NC(=O)c1nn(CC2CCC2)c2c1CCCC2`, for which the inhibition with Jurkat T came to 92.6%. Still for that read-out and setting: for `O=C(Nc1ccncc1F)c1nn(CC2CC2)c2ccc(Br)cc12` the value was 58.6%; for `Cc1cnccc1NC(=O)c1nn(CC2CC2)c2ccccc12`, 86.9%; for `Cc1ccc2c(c1)c(C(=O)Nc1ccncc1F)nn2CC1CC1`, 81.9%. The same measure, in the same setting: for `O=C(Nc1ccncc1F)c1ccn(CC2CC2)n1` the value was 60.2%; for `O=C(Nc1ccncc1F)c1nn(CC2CC2)c2ccc(F)cc12`, 77.3%. On to `O=C(Nc1ccncc1F)c1nn(CC2CCCCC2)c2ccccc12`, for which the inhibition in the data set on Jurkat T worked out at 88.4%.

As to `O=C(Nc1c(F)cccc1F)c1ccn(CC2CC2)n1`, the inhibition entry in the data set on Jurkat T is “inactive”. On the same count and under the same terms, in the case of `O=C(Nc1ccncc1F)c1nn(CC2CCCC2)c2ccccc12` it was 95.4%.

For the compound `O=C(Nc1ccncc1F)c1nn(CC2CC2)c2c1CCCC2`, the inhibition with Jurkat T stood at 87.3%.

Take `Cc1cnccc1NC(=O)c1nn(CC2CC2)c2c1CCC2`: the inhibition with Jurkat T is 55.5%. The same measure, in the same setting: for `O=C(Nc1ccncc1F)c1nn(CC2CC2)c2cc(Cl)ccc12` the value was 51.9%; for `O=C(Nc1ccncc1F)c1nn(C(=O)C2CC2)c2ccccc12`, 76.8%; for `O=C(Nc1c(F)cccc1F)c1nn(CC2CC2)c2c1CCCC2`, 53.9%. As to `O=C(Nc1ccncc1F)c1nn(CC2CCC2)c2ccccc12`, the inhibition in the data set with Jurkat T worked out at 80.5%. Turning to `O=C(Nc1ccncc1F)c1nn(CC2CC2)c2c1CCC2`, in the data set on Jurkat T, the inhibition is 63.6%.

Turning to `Cc1cnccc1NC(=O)c1nn(CC2CCC2)c2ccccc12`, in the data set with Jurkat T, the inhibition is 92.4%.

Broadly, the inhibition is the relative decrease from the control value, in per cent. For orientation: IC50 means the concentration needed to halve the response being measured.
